# ChEMBL document CHEMBL4219254, “Harnessing biosynthesis and quantitative NMR for late stage functionalization of lead molecules: Application to the M1 positive allosteric modulator (PAM) program” (Bioorg Med Chem Lett, 2018)
# Key:
# [1] = Drug level in hamster liver microsomes treated with N-((3R,4S)-3-hydroxytetrahydro-2H-pyran-4-yl)-1-(4-(1-methyl-1H-pyrazol-3-yl)benzyl)-1H-pyrrolo[3,2-b]pyridine-3-carboxamide at 20 uM by UHPLC-UV-HRMS analysis; type: ADME, microsome; conditions: cricetinae
# [2] = target: T1, Muscarinic acetylcholine receptor M1 (Homo sapiens, UniProt P11229); experiment: Positive allosteric modulation of human muscarinic M1 receptor expressed in CHO cells assessed as increase in ACh-induced intracellular calcium level preincubated for 10 mins followed by ACh addition measured every 2 secs for 80 secs by Fluo-4 dye-based FLIPR assay; type: functional, cell-based
# T1 sequence (P11229 whole entry): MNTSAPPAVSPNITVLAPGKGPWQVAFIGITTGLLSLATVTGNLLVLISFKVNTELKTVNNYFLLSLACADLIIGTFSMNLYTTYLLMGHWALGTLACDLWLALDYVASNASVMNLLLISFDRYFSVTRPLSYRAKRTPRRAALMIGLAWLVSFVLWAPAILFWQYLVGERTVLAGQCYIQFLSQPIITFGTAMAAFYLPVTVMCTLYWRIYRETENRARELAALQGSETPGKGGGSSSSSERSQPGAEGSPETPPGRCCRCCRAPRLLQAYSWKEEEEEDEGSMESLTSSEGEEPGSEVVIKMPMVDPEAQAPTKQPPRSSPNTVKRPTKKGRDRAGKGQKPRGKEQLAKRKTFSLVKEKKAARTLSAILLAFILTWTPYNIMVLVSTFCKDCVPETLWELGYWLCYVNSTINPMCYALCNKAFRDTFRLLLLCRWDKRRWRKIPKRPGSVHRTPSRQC
# [3] = Drug level in rabbit liver microsomes treated with 4-(4-(1H-pyrazol-1-yl)benzyl)-N-((3R,4S)-3-hydroxytetrahydro-2H-pyran-4-yl)-5-methylpicolinamide at 20 uM after 60 mins by UHPLC-UV-HRMS analysis; type: ADME, Oryctolagus cuniculus, microsome
# [4] = Drug level in dexamethasone-induced rat liver microsomes treated with N-((3R,4S)-3-hydroxytetrahydro-2H-pyran-4-yl)-5-methyl-4-(4-(thiazol-4-yl)benzyl)picolinamide at 20 uM after 60 mins by UHPLC-UV-HRMS analysis; type: ADME, microsome; conditions: 1 h
# [5] = Permeability in RRCK cells; type: ADME, cell-based, Canis lupus familiaris, MDCKII-LE; conditions: dog, MDCK; read-out: permeability
# [6] = Drug level in rat liver microsomes treated with N-((3R,4S)-3-hydroxytetrahydro-2H-pyran-4-yl)-5-methyl-1-(4-(1-methyl-1H-pyrazol-3-yl)benzyl)-1H-pyrrolo[3,2-b]pyridine-3-carboxamide at 20 uM after 70 mins by UHPLC-UV-HRMS analysis; type: ADME, microsome
# [7] = Drug level in guinea pig liver microsomes treated with 1-(4-(1H-pyrazol-1-yl)benzyl)-N-((1S,2S)-2-hydroxycyclohexyl)-1H-pyrrolo[3,2-b]pyridine-3-carboxamide at 20 uM after 75 mins by UHPLC-UV-HRMS analysis; type: ADME, Cavia porcellus, microsome; conditions: 1.25 h
# [8] = Drug metabolism in rabbit liver microsomes assessed as formation of 4-(4-(1H-pyrazol-1-yl)benzyl)-5-methyl-N-((2R,3S)-1,2,5-trihydroxypentan-3-yl)picolinamide at 20 uM after 60 mins by UHPLC-UV-HRMS analysis; type: ADME, Oryctolagus cuniculus, microsome
# [9] = Drug metabolism in rabbit liver microsomes assessed as formation of 4-(4-(1H-pyrazol-1-yl)benzyl)-N-((3R,4S)-2,3-dihydroxytetrahydro-2H-pyran-4-yl)-5-methylpicolinamide at 20 uM after 60 mins by UHPLC-UV-HRMS analysis; type: ADME, Oryctolagus cuniculus, microsome
# [10] = Drug metabolism in rabbit liver microsomes assessed as formation of 4-((4-(1H-pyrazol-1-yl)phenyl)(hydroxy)methyl)-N-((3R,4S)-3-hydroxytetrahydro-2H-pyran-4-yl)-5-methylpicolinamide at 20 uM after 60 mins by UHPLC-UV-HRMS analysis; type: ADME, Oryctolagus cuniculus, microsome
# [11] = Drug metabolism in rabbit liver microsomes assessed as formation of 4-(4-(1H-pyrazol-1-yl)benzyl)-N-((4S,5R)-2,5-dihydroxytetrahydro-2H-pyran-4-yl)-5-methylpicolinamide at 20 uM after 60 mins by UHPLC-UV-HRMS analysis; type: ADME, Oryctolagus cuniculus, microsome
# [12] = Drug metabolism in rabbit liver microsomes assessed as formation of 4-(4-(4-hydroxy-1H-pyrazol-1-yl)benzyl)-N-((3R,4S)-3-hydroxytetrahydro-2H-pyran-4-yl)-5-methylpicolinamide at 20 uM after 60 mins by UHPLC-UV-HRMS analysis; type: ADME, Oryctolagus cuniculus, microsome
# [13] = Drug metabolism in rabbit liver microsomes assessed as formation of 4-(4-(1H-pyrazol-1-yl)benzyl)-5-(hydroxymethyl)-N-((3R,4S)-3-hydroxytetrahydro-2H-pyran-4-yl)picolinamide at 20 uM after 60 mins by UHPLC-UV-HRMS analysis; type: ADME, Oryctolagus cuniculus, microsome
# [14] = Drug metabolism in dexamethasone-induced rat liver microsomes assessed as formation of N-((3R,4S)-2,3-dihydroxytetrahydro-2H-pyran-4-yl)-5-methyl-4-(4-(thiazol-4-yl)benzyl)picolinamide at 20 uM after 60 mins by UHPLC-UV-HRMS analysis; type: ADME, microsome; conditions: 1 h
# [15] = Drug metabolism in dexamethasone-induced rat liver microsomes assessed as formation of 4-(hydroxy(4-(thiazol-4-yl)phenyl)methyl)-N-((3R,4S)-3-hydroxytetrahydro-2H-pyran-4-yl)-5-methylpicolinamide at 20 uM after 60 mins by UHPLC-UV-HRMS analysis; type: ADME, microsome; conditions: 1 h
# [16] = Drug level in rabbit liver microsomes treated with 5-(4-(1H-pyrazol-1-yl)benzyl)-N-((1S,2S)-2-hydroxycyclohexyl)-1,6-dimethyl-2-oxo-1,2-dihydropyridine-3-carboxamide at 20 uM after 60 mins by UHPLC-UV-HRMS analysis; type: ADME, Oryctolagus cuniculus, microsome
structure (smiles),measurement,setting,value
Cn1ccc(-c2ccc(Cn3cc(C(=O)N[C@H]4CCOC(O)[C@@H]4O)c4ncccc43)cc2)n1 (some centres undefined),Drug metabolism,[1],Metabolite_Detected
same,EC50,[2],> 257 nM
Cc1cnc(C(=O)N[C@H]2CC(O)OC[C@@H]2O)cc1Cc1ccc(-n2cccn2)cc1 (some centres undefined),EC50,[2],> 3000 nM
same,Drug metabolism,[3],Metabolite_Detected
Cc1cnc(C(=O)N[C@H]2CCOC[C@@H]2O)cc1C(O)c1ccc(-c2cscn2)cc1 (stereo in doubt; 14a),EC50,[2],> 4150 nM
same,Drug metabolism,[4],Metabolite_Detected
Cc1cnc(C(=O)N[C@H]2CCOC[C@@H]2O)cc1Cc1ccc(-n2cc(O)cn2)cc1,EC50,[2],70 nM
same,Drug metabolism,[3],Metabolite_Detected
Cc1ccc2c(n1)c(C(=O)N[C@H]1CCOC[C@@H]1O)cn2Cc1ccc(-c2ccn(C)n2)cc1,Papp,[5],21 ×10⁻⁶ cm/s
Cn1ccc(-c2ccc(Cn3cc(C(=O)N[C@H]4CCOC[C@@H]4O)c4nc(CO)ccc43)cc2)n1,Drug metabolism,[6],Metabolite_Detected
same,EC50,[2],99 nM
O=C(N[C@H]1CCC(O)C[C@@H]1O)c1cn(Cc2ccc(-n3cccn3)cc2)c2cccnc12 (stereo in doubt; 20b),EC50,[2],16 nM
O=C(N[C@H]1CC(O)CC[C@@H]1O)c1cn(Cc2ccc(-n3cccn3)cc2)c2cccnc12 (some centres undefined),EC50,[2],> 72 nM
same,Drug metabolism,[7],Metabolite_Detected
O=C(N[C@H]1C(O)CCC[C@@H]1O)c1cn(Cc2ccc(-n3cccn3)cc2)c2cccnc12 (some centres undefined),EC50,[2],> 249 nM
same,Drug metabolism,[7],Metabolite_Detected
O=C(N[C@H]1CCCC[C@@H]1O)c1cn(Cc2ccc(-n3cccn3)cc2)c2cccnc12,Papp,[5],16.2 ×10⁻⁶ cm/s
Cc1cnc(C(=O)N[C@H]2CCOC[C@@H]2O)cc1Cc1ccc(-n2cccn2)cc1,Drug metabolism,[8],Metabolite_Detected
same,Drug metabolism,[9],Metabolite_Detected
same,Drug metabolism,[10],Metabolite_Detected
same,Drug metabolism,[11],Metabolite_Detected
same,Drug metabolism,[12],Metabolite_Detected
same,Drug metabolism,[13],Metabolite_Detected
Cc1cnc(C(=O)N[C@H]2CCOC[C@@H]2O)cc1Cc1ccc(-c2cscn2)cc1,Drug metabolism,[14],Metabolite_Detected
same,Drug metabolism,[15],Metabolite_Detected
Cc1cnc(C(=O)N[C@H]2CCOC(O)[C@@H]2O)cc1Cc1ccc(-c2cscn2)cc1 (some centres undefined),EC50,[2],162 nM
same,Drug metabolism,[4],Metabolite_Detected
Cc1[nH]c(=O)c(C(=O)N[C@H]2CC(O)CC[C@@H]2O)cc1Cc1ccc(-n2cccn2)cc1 (some centres undefined),Drug metabolism,[16],Metabolite_Detected
same,EC50,[2],12 nM
